Laboratory results reported in ChEMBL document CHEMBL1275397, “Effects on molecular conformation and anticoagulant activities of 1,6-anhydrosugars at the reducing terminal of antithrombin-binding octasaccharides isolated from low-molecular-weight heparin enoxaparin” (J Med Chem, 2010).

How the values were obtained:
[1] = Binding affinity to human antithrombin in HEPES buffer containing 0.25 M sodium chloride assessed as increase of serpin intrinsic fluorescence by fluorospectrophotometric analysis
[2] = Binding affinity to human antithrombin in HEPES buffer containing 0.1 M sodium chloride assessed as increase of serpin intrinsic fluorescence by fluorospectrophotometric analysis
[3] = biological target: Coagulation factor X (Homo sapiens) (UniProt P00742); test: Inhibition of factor 10a in human plasma assessed as specific activity of enzyme; format: cell-free
Sequence of Coagulation factor X (Homo sapiens) (P00742 41-179 limits assumed): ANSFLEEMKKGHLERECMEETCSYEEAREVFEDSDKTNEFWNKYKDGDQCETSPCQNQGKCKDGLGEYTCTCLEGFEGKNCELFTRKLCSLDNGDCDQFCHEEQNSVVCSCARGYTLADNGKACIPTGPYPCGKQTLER
Sequence of Coagulation factor X (Homo sapiens) (P00742 235-488 limits assumed): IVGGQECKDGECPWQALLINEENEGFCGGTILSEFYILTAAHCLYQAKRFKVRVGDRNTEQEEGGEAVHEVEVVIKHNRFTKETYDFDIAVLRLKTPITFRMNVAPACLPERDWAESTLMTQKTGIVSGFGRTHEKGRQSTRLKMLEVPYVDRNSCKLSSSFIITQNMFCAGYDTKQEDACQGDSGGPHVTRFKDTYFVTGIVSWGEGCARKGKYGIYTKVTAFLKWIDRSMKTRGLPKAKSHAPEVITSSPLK

[4] = biological target: Coagulation factor X (Homo sapiens) (UniProt P00742); test: Inhibition of factor 10a in aqueous buffer solutions assessed as specific activity of enzyme
[5] = Binding affinity to human antithrombin in HEPES buffer containing 0.50 M sodium chloride assessed as increase of serpin intrinsic fluorescence by fluorospectrophotometric analysis

Row | Kd [1] [µM] | Kd [2] [µM] | Activity [3] [U/mg] | Activity [4] [U/mg] | Kd [5] [µM] | SMILES
1 | > 10 | 1.23 | 39.3 | 39.6 | – | CC(=O)N[C@H]1[C@@H](O[C@H]2[C@H](O)[C@@H](O)[C@H](O[C@H]3[C@H](OS(=O)(=O)O)[C@@H](NS(=O)(=O)O)[C@@H](O[C@H]4[C@H](O)[C@@H](OS(=O)(=O)O)[C@H](O[C@H]5[C@H](O)[C@@H](NS(=O)(=O)O)[C@H]6OC[C@H]5O6)O[C@H]4C(=O)O)O[C@@H]3COS(=O)(=O)O)O[C@@H]2C(=O)O)O[C@H](COS(=O)(=O)O)[C@@H](O[C@@H]2O[C@@H](C(=O)O)[C@@H](O[C@H]3O[C@H](COS(=O)(=O)O)[C@@H](O[C@@H]4OC(C(=O)O)=C[C@H](O)[C@H]4OS(=O)(=O)O)[C@H](O)[C@H]3NS(=O)(=O)O)[C@H](O)[C@H]2O)[C@@H]1O
2 | > 10 | 0.9 | 49.6 | 51.4 | – | CC(=O)N[C@H]1[C@@H](O[C@H]2[C@H](O)[C@@H](O)[C@H](O[C@H]3[C@H](OS(=O)(=O)O)[C@@H](NS(=O)(=O)O)[C@@H](O[C@H]4[C@H](O)[C@@H](OS(=O)(=O)O)[C@H](O[C@H]5[C@H](O)[C@H](NS(=O)(=O)O)[C@H]6OC[C@H]5O6)O[C@H]4C(=O)O)O[C@@H]3COS(=O)(=O)O)O[C@@H]2C(=O)O)O[C@H](COS(=O)(=O)O)[C@@H](O[C@@H]2O[C@@H](C(=O)O)[C@@H](O[C@H]3O[C@H](COS(=O)(=O)O)[C@@H](O[C@@H]4OC(C(=O)O)=C[C@H](O)[C@H]4OS(=O)(=O)O)[C@H](O)[C@H]3NS(=O)(=O)O)[C@H](O)[C@H]2O)[C@@H]1O
3 | – | 0.12 | – | – | 2.74 | CC(=O)N[C@H]1[C@@H](O[C@H]2[C@H](O)[C@@H](O)[C@H](O[C@H]3[C@H](OS(=O)(=O)O)[C@@H](NS(=O)(=O)O)[C@@H](O[C@H]4[C@H](O)[C@@H](OS(=O)(=O)O)[C@H](O[C@H]5[C@H](O)[C@@H](NS(=O)(=O)O)[C@@H](O)O[C@@H]5COS(=O)(=O)O)O[C@H]4C(=O)O)O[C@@H]3COS(=O)(=O)O)O[C@@H]2C(=O)O)O[C@H](COS(=O)(=O)O)[C@@H](O[C@@H]2O[C@@H](C(=O)O)[C@@H](O[C@H]3O[C@H](COS(=O)(=O)O)[C@@H](O[C@@H]4OC(C(=O)O)=C[C@H](O)[C@H]4OS(=O)(=O)O)[C@H](O)[C@H]3NS(=O)(=O)O)[C@H](O)[C@H]2O)[C@@H]1O
